Target: Tyrosine-protein kinase SYK (Homo sapiens) (UniProt P43405)
Test: Inhibition of recombinant human full length N-terminal His6-tagged SYK expressed in baculovirus Sf21 insect cells preincubated for 5 mins followed by substrate addition after 30 to 60 mins in presence of ATP by fluorescence assay

- IC50: > 10 µM
SMILES: C=CS(=O)(=O)N1CCC[C@@H]1Cn1cc(-c2ccc3c(c2)OCO3)c2c(N)ncnc21

— BindingDB's records for doi:10.1016/j.bmcl.2017.07.009 (Sichuan University and Collaborative Innovation Center, 2017)
